Reference: patent US11992012B2, “Diaminotriazine compounds” (BASF SE, priority 2018, dated 2024)

Tests used:
Assay in all cases: greenhouse pre-emergence herbicidal test
Type in all cases: in vivo
Conditions in all cases: 250 g/ha, scale 0 to 100
Echinocloa crus-galli = tested on: Echinocloa crus-galli
Text: (§1) The culture containers used were plastic flowerpots containing loamy sand with approximately 3.0% of humus as the substrate. The seeds of the test plants were sown separately for each species.
(§2) For the pre-emergence treatment, the active ingredients, which had been suspended or emulsified in water, were applied directly after sowing by means of finely distributing nozzles. The containers were irrigated gently to promote germination and growth and subsequently covered with transparent plastic hoods until the plants had rooted. This cover caused uniform germination of the test plants, unless this had been impaired by the active ingredients.
(§3) Depending on the species, the plants were kept at 10-25° C. or 20-35° C., respectively.
(§4) The test period extended over 2 to 4 weeks. During this time, the plants were tended, and their response to the individual treatments was evaluated.
(§5) Evaluation was carried out using a scale from 0 to 100. 100 means no emergence of the plants, or complete destruction of at least the aerial moieties, and 0 means no damage, or normal course of growth. A moderate herbicidal activity is given at values of at least 60, a good herbicidal activity is given at values of at least 70, and a very good herbicidal activity is given at values of at least 85.

Alopercurus myosuroides = tested on: Alopercurus myosuroides
Text: as §1, §2, §3, §4, §5

Amaranthus retroflexus = tested on: Amaranthus retroflexus
Text: as §1, §2, §3, §4, §5

Setaria faberi = tested on: Setaria faberi
Text: The culture containers used were plastic flowerpots containing loamy sand with approximately 3.0% of humus as the substrate. The seeds of the test plants were sown separately for each species. For the pre-emergence treatment, the active ingredients, which had been suspended or emulsified in water, were applied directly after sowing by means of finely distributing nozzles. The containers were irrigated gently to promote germination and growth and subsequently covered with transparent plastic hoods until the plants had rooted. This cover caused uniform germination of the test plants, unless this had been impaired by the active ingredients. […] The test period extended over 2 to 4 weeks. During this time, the plants were tended, and their response to the individual treatments was evaluated. Evaluation was carried out using a scale from 0 to 100. 100 means no emergence of the plants, or complete destruction of at least the aerial moieties, and 0 means no damage, or normal course of growth.

Row | Structure (SMILES) | herbicidal activity (Echinocloa crus-galli) [%] | herbicidal activity (Alopercurus myosuroides) [%] | herbicidal activity (Amaranthus retroflexus) [%] | herbicidal activity (Setaria faberi) [%]
1 | CC(C)(F)c1nc(N)nc(Nc2c(F)cccc2OCc2ccccc2)n1 [Example 4] | 100 | 100 | 100 | 100
2 | Nc1nc(Nc2c(F)cccc2OCc2ccccc2)nc(C2(F)CCCC2)n1 [Example 5] | 100 | 85 | 98 | 98
3 | Cc1ccc(COc2cccc(F)c2Nc2nc(N)nc(C(C)(C)F)n2)cc1 [Example 9] | 100 | 80 | 95 | 100
4 | COc1cccc(COc2cccc(F)c2Nc2nc(N)nc(C(C)(C)F)n2)c1 [Example 10] | 100 | 100 | 100 | 100
5 | CC(C)(F)c1nc(N)nc(Nc2c(F)cccc2OCc2cccc(F)c2)n1 [Example 11] | 100 | 100 | 100 | 100
6 | Nc1nc(Nc2c(F)cccc2OCc2cccc(F)c2)nc(C2(F)CCCC2)n1 [Example 18] | 70 | 70 | 70 | 85
7 | Nc1nc(Nc2c(F)cccc2OCc2ccccc2F)nc(C2(F)CCCC2)n1 [Example 19] |  | 70 | 80 | 85
8 | COc1ccc(COc2cccc(F)c2Nc2nc(N)nc(C(C)(C)F)n2)cc1 [Example 20] | 100 | 100 | 98 | 95
9 | CC(C)(F)c1nc(N)nc(Nc2c(F)cccc2OCc2cnc(Cl)s2)n1 [Example 39] | 100 | 90 | 80 | 90
10 | CC(C)(F)c1nc(N)nc(Nc2c(F)cccc2OCc2ccc(F)c(F)c2)n1 [Example 45] | 80 | 80 |  | 70
11 | CC(C)(F)c1nc(N)nc(Nc2c(F)cc(F)cc2OCc2ccccc2)n1 [Example 60] | 100 | 98 | 100 | 100
12 | CC(C)(F)c1nc(N)nc(Nc2c(OCc3ccccc3)cc(F)c(F)c2F)n1 [Example 69] | 100 | 100 | 100 | 100
13 | CC(C)(F)c1nc(N)nc(Nc2c(F)cccc2OCc2c(Cl)cccc2Cl)n1 [Example 78] | 100 | 100 |  | 75
14 | CC(C)(F)c1nc(N)nc(Nc2c(F)cccc2OC(F)(F)c2ccccc2)n1 [Example 83] | 100 | 100 |  | 100
15 | COC(C)(C)c1nc(N)nc(Nc2c(F)cccc2OCc2ccccc2)n1 [Example 91] | 100 | 100 | 100 | 100
16 | CCc1ccc(COc2cccc(F)c2Nc2nc(N)nc(C(C)(C)F)n2)cc1 [Example 94] |  | 100 | 70 | 
17 | CC(F)(F)c1nc(N)nc(Nc2c(F)cccc2OCc2ccccc2)n1 [Example 96] | 100 | 80 | 100 | 95
18 | COc1cccc(COc2cc(F)c(F)c(F)c2Nc2nc(N)nc(C(C)(C)F)n2)c1 [Example 98] | 100 | 80 | 90 | 100
19 | CC(C)(F)c1nc(N)nc(Nc2c(F)cccc2OCc2ccsc2Cl)n1 [Example 107] | 100 | 75 | 75 | 100
20 | CC(C)(F)c1nc(N)nc(Nc2c(F)cccc2OCc2ccc(Cl)s2)n1 [Example 120] | 100 | 75 |  | 90
21 | CC(C)c1ccc(COc2cccc(F)c2Nc2nc(N)nc(C(C)(C)F)n2)cc1 [Example 143] |  | 90 | 100 | 
22 | CCOc1cccc(COc2cccc(F)c2Nc2nc(N)nc(C(C)(C)F)n2)c1 [Example 149] | 75 | 85 |  | 90

Row | Structure (SMILES) | herbicidal activity (Echinocloa crus-galli) [%] | herbicidal activity (Alopercurus myosuroides) [%] | herbicidal activity (Amaranthus retroflexus) [%] | herbicidal activity (Setaria faberi) [%]
23 | CC(C)=C(F)c1nc(N)nc(Nc2c(F)ccc(F)c2OCc2ccccc2)n1 [Example 160] |  | 85 |  | 75
24 | CC(C)(F)c1nc(N)nc(Nc2c(F)c(Br)cc(F)c2OCc2ccccc2)n1 [Example 163] | 100 | 100 |  | 100
25 | COc1cccc(COc2c(F)cc(F)c(F)c2Nc2nc(N)nc(C(C)(C)F)n2)c1 [Example 164] | 100 | 100 |  | 100
26 | CC(C)(F)c1nc(N)nc(Nc2c(F)ccc(F)c2OCc2ccsc2)n1 [Example 174] | 100 | 100 |  | 100
27 | CC(C)(F)c1nc(N)nc(Nc2c(F)cccc2OCc2c(F)cccc2Cl)n1 [Example 177] | 100 | 85 |  | 95
28 | COc1ccc(COc2c(F)cc(F)c(F)c2Nc2nc(N)nc(C(C)(C)F)n2)cc1 [Example 180] | 100 | 90 |  | 100
29 | Cc1ccccc1COc1c(F)cc(F)c(F)c1Nc1nc(N)nc(C(C)(C)F)n1 [Example 181] | 100 | 98 |  | 100
30 | Cc1cccc(COc2c(F)cc(F)c(F)c2Nc2nc(N)nc(C(C)(C)F)n2)c1 [Example 182] | 100 | 100 |  | 100
31 | Nc1nc(Nc2c(F)cccc2OCc2ccccc2)nc(C2(F)CC2)n1 [Example 184] | 98 | 85 | 95 | 
32 | COc1cccc(COc2ccc(F)c(F)c2Nc2nc(N)nc(C(C)(C)F)n2)c1 [Example 185] | 100 | 98 |  | 100
33 | Nc1nc(Nc2c(F)ccc(F)c2OCc2ccccc2)nc(C2(F)CC2)n1 [Example 187] | 100 | 85 |  | 100
34 | Nc1nc(Nc2c(F)ccc(F)c2OCc2ccccc2)nc(C(F)C2CC2)n1 (centres unmarked) [Example 189] | 100 | 98 |  | 100
35 | CCOc1ccc(COc2c(F)ccc(F)c2Nc2nc(N)nc(C(C)(C)F)n2)cc1 [Example 193] | 95 | 80 |  | 100
36 | CC(F)c1nc(N)nc(Nc2c(F)ccc(F)c2OCc2ccccc2)n1 (centres unmarked) [Example 196] | 100 | 98 |  | 100
37 | CC1(c2nc(N)nc(Nc3c(F)c(F)cc(F)c3OCc3ccccc3)n2)CCC1 [Example 201] | 100 | 100 |  | 100
38 | CC(C)(F)c1nc(N)nc(Nc2c(F)c(F)cc(F)c2OCc2ccccc2F)n1 [Example 203] | 100 | 100 |  | 100
39 | CC(C)(F)c1nc(N)nc(Nc2c(F)c(F)cc(F)c2OCc2ccc(F)cc2)n1 [Example 205] | 100 | 100 |  | 100
40 | CC(C)(F)c1nc(N)nc(Nc2c(F)c(F)cc(F)c2OCc2ccccc2C2CC2)n1 [Example 218] | 85 | 95 |  | 100
41 | COCc1ccc(COc2c(F)cc(F)c(F)c2Nc2nc(N)nc(C(C)(C)F)n2)cc1 [Example 220] | 95 | 98 |  | 90
42 | COC(C)(C)c1nc(N)nc(Nc2c(F)c(F)cc(F)c2OCc2cccc(C)c2)n1 [Example 227] | 75 | 90 |  | 85
43 | Cc1cccc(C)c1COc1c(F)cc(F)c(F)c1Nc1nc(N)nc(C(C)F)n1 (centres unmarked) [Example 255] | 95 | 90 |  | 90
